What follows are molecules tested against Wild-type human active MASTL (Homo sapiens (Human), UniProt Q96GX5) (assay: MASTL activity assay). Settings: ATP 18 μM, biotin tagged 40-mer ENSA peptide 10 nM, 60 minutes at room temperature, HTRF/FRET readout.
Assay type: biochemical
Description: Wild-type human active MASTL (154 pM) was incubated in assay buffer (50 mM HEPES, 100 mM NaCl, 0.1 mM EGTA, 10 mM MgCl2, 0.01% Tween-20, 0.5 mM TCEP, pH 7.5) with biotin tagged 40-mer ENSA peptide (10 nM), test compound and ATP (18 μM) for 60 minutes at room temperature. Test compounds were assayed using a 12-point dose range consisting of a 0, DMSO control and 10 sequential doses consisting from 0.0005, 0.002, 0.005, 0.014, 0.04, 0.12, 0.37, 1.11, 3.33 and 10 μM. The DMSO concentration was the same (1%) in all samples. An equal volume of detection buffer (assay buffer+267.5 pM Ab-K, 1.25 nM SA-D2, 20 mM EDTA and 400 mM KF) was added to stop the reaction to make a final volume of 20 μl, RT for 60 mins. Activity was measured using a plate reader (PerkinElmer EnSight) by the FRET signal generated between SA-D2 (streptavidin-D2) and Ab-K (anti-phospho-Serine 67 ENSA antibody (rabbit polyclonal, using standard techniques by a commercial supplier) conjugated to Cryptate). HTRF reagents (CisBio) were prepared as per the manufacturer recommendations. The 40-mer biotin-tagged ENSA peptide (synthesised by Bionics) used was based around Serine 67 on ENSA ([…]).

Wild-type human active MASTL, sequence (Q96GX5 whole entry): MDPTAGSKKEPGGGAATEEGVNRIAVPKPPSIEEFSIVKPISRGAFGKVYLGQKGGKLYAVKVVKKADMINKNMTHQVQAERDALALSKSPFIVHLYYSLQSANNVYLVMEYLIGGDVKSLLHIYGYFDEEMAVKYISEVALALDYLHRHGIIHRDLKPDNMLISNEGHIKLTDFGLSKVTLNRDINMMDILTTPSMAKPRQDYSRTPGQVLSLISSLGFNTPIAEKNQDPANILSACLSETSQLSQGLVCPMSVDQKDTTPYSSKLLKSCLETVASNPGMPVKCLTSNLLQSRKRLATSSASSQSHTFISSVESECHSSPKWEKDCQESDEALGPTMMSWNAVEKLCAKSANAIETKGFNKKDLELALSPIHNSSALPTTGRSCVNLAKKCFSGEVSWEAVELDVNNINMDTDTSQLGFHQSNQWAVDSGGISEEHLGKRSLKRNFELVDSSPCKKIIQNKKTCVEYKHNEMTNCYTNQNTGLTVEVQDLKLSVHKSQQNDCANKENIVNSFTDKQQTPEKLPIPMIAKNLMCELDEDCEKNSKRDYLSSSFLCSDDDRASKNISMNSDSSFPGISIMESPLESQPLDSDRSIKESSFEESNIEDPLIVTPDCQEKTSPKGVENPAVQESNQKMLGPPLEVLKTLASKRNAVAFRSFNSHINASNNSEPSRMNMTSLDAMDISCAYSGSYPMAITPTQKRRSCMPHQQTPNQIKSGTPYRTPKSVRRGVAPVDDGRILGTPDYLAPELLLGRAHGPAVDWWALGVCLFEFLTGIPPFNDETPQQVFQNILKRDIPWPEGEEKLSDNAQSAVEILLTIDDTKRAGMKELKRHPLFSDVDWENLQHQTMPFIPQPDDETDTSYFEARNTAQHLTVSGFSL

Compound | IC50 [nM]
Cc1ncc2ccc(-c3nc(N)nc(NC(c4c[nH]c(C(F)(F)F)n4)C4CCCCC4)n3)cn12 (single isomer, unassigned) [Example 153A, N4-[(S or R)-cyclohexyl-[2-(trifluoromethyl)-1H-imidazol-4-yl]methyl]-6-(3-methylimidazo[1,5-a]pyridin-6-yl)-1,3,5-triazine-2,4-diamine] | 1 to 500
Cc1ncc2ccc(-c3nc(N)nc(N[C@@H](c4ccc(F)cn4)C(C)C)n3)cn12 (single isomer, unassigned) [Example 136A, N2-[(1R or 1S)-1-(5-fluoro-2-pyridyl)-2-methyl-propyl]-6-(3-methylimidazo[1,5-a]pyridin-6-yl)-1,3,5-triazine-2,4-diamine] | 1 to 500
CC(C)C(Nc1nc(N)nc(-c2ccc3c(cnn3C)c2)n1)c1ccn(C(F)F)n1 (single isomer, unassigned) [Example 47A, (R or S)—N2-(1-(1-(difluoromethyl)-1H-pyrazol-3-yl)-2-methylpropyl)-6-(1-methyl-1H-indazol-5-yl)-1,3,5-triazine-2,4-diamine] | 1 to 500
CC(C)CC(Nc1nc(N)nc(-c2ccc3cnn(C)c3c2)n1)c1c[nH]c(C(F)(F)F)n1 (single isomer, unassigned) [Example 180A, 6-(1-methylindazol-6-yl)-N4-[(1R or 1S)-3-methyl-1-[2-(trifluoromethyl)-1H-imidazol-4-yl]butyl]-1,3,5-triazine-2,4-diamine] | > 1000
Cc1ncc2ccc(-c3nc(N)nc(N[C@@H](CC(C)C)c4c[nH]c(C(F)(F)F)n4)n3)cn12 (single isomer, unassigned) [Example 152B, 6-(3-methylimidazo[1,5-a]pyridin-6-yl)-N4-[(1S or 1R)-3-methyl-1-[2-(trifluoromethyl)-1H-imidazol-4-yl]butyl]-1,3,5-triazine-2,4-diamine] | 1 to 500
CC[C@@H](Nc1nc(N)nc(-c2ccc3cnc(C)n3c2)n1)c1ccc(F)nc1 (single isomer, unassigned) [Example 141A, N2-[(1R or 1S)-1-(6-fluoro-3-pyridyl)propyl]-6-(3-methylimidazo[1,5-a]pyridin-6-yl)-1,3,5-triazine-2,4-diamine] | 500 to 1000
CNc1nc(NC[C@H](O)c2cccc(Cl)c2Cl)cc(-c2ccc3cnc(C)n3c2)n1 (single isomer, unassigned) [Example 143A, (1R or 1S)-1-(2,3-dichlorophenyl)-2-[[2-(methylamino)-6-(3-methylimidazo[1,5-a]pyridin-6-yl)pyrimidin-4-yl]amino]ethanol] | 1 to 500
CNc1nc(N[C@@H](c2c[nH]c(C(F)(F)F)n2)C(C)C)nc(-c2ccc3cnc(C)n3c2)n1 (single isomer, unassigned) [Example 149A, N2-methyl-6-(3-methylimidazo[1,5-a]pyridin-6-yl)-N4-[(1S or 1R)-2-methyl-1-[2-(trifluoromethyl)-1H-imidazol-4-yl]propyl]-1,3,5-triazine-2,4-diamine] | 1 to 500
CC[C@H](Nc1nc(N)nc(-c2ccc3cnc(C)n3c2)n1)c1ccc(F)nc1 (single isomer, unassigned) [Example 141B, N2-[(1R or 1S)-1-(6-fluoro-3-pyridyl)propyl]-6-(3-methylimidazo[1,5-a]pyridin-6-yl)-1,3,5-triazine-2,4-diamine] | 500 to 1000
CNc1nc(NCC(O)c2cccc(Cl)c2Cl)cc(-c2ccc3cnc(C)n3c2)n1 (single isomer, unassigned) [Example 143B, (1R or 1S)-1-(2,3-dichlorophenyl)-2-[[2-(methylamino)-6-(3-methylimidazo[1,5-a]pyridin-6-yl)pyrimidin-4-yl]amino]ethanol] | > 1000
Cc1ncc2ccc(-c3nc(N)nc(N[C@@H](c4c[nH]c(C(F)(F)F)n4)C(C)C)n3)cn12 (single isomer, unassigned) [Example 142A, 6-(3-methylimidazo[1,5-a]pyridin-6-yl)-N2-[(1R or 1S)-2-methyl-1-[2-(trifluoromethyl)-1H-imidazol-4-yl]propyl]-1,3,5-triazine-2,4-diamine] | 1 to 500
Cc1ncc2ccc(-c3nc(N)nc(N[C@H](CC4CC4)c4c[nH]c(C(F)(F)F)n4)n3)cn12 (single isomer, unassigned) [Example 7A, N4-[(1S or 1R)-2-cyclopropyl-1-[2-(trifluoromethyl)-1H-imidazol-4-yl]ethyl]-6-(3-methylimidazo[1,5-a]pyridin-6-yl)-1,3,5-triazine-2,4-diamine] | 1 to 500
Cc1ncc2ccc(-c3nc(N)nc(N[C@H](c4ccc(F)cn4)C(C)C)n3)cn12 (single isomer, unassigned) [Example 136B, N2-[(1R or 1S)-1-(5-fluoro-2-pyridyl)-2-methyl-propyl]-6-(3-methylimidazo[1,5-a]pyridin-6-yl)-1,3,5-triazine-2,4-diamine] | > 1000
Cc1ncc2ccc(-c3nc(N)nc(NC(c4c[nH]c(C(F)(F)F)n4)C4CCCCC4)n3)cn12 (single isomer, unassigned) [Example 153B, N4-[(S or R)-cyclohexyl-[2-(trifluoromethyl)-1H-imidazol-4-yl]methyl]-6-(3-methylimidazo[1,5-a]pyridin-6-yl)-1,3,5-triazine-2,4-diamine] | 1 to 500

More lines, now with the values ahead:

IC50 [nM] | Compound
1 to 500 | Cc1ncc2ccc(-c3nc(N)nc(NC[C@H](O)c4cccc(Cl)c4Cl)n3)cn12 (single isomer, unassigned) [Example 146A, (1S or 1R)-[[4-amino-6-(3-methylimidazo[1,5-a]pyridin-6-yl)-1,3,5-triazin-2-yl]amino]-1-(2,3-dichlorophenyl) ethanol]
1 to 500 | CNc1nc(N[C@@H](c2ccn(C(F)F)n2)C(C)C)nc(-c2ccc3cnn(C)c3c2)n1 (single isomer, unassigned) [Example 29A, N4-[(1S or 1R)-1-[1-(difluoromethyl)pyrazol-3-yl]-2-methyl-propyl]-N2-(trideuteriomethyl)-6-[1-(trideuteriomethyl)indazol-6-yl]-1,3,5-triazine-2,4-diamine]
> 1000 | CNc1nc(N[C@H](c2ccn(C(F)F)n2)C(C)C)nc(-c2ccc3cnn(C)c3c2)n1 (single isomer, unassigned) [Example 29B, N4-[(1S or 1R)-1-[1-(difluoromethyl)pyrazol-3-yl]-2-methyl-propyl]-N2-(trideuteriomethyl)-6-[1-(trideuteriomethyl)indazol-6-yl]-1,3,5-triazine-2,4-diamine]
1 to 500 | Cc1ncc2ccc(-c3nc(N)nc(N[C@@H](CC4CC4)c4c[nH]c(C(F)(F)F)n4)n3)cn12 (single isomer, unassigned) [Example 7B, N4-[(1S or 1R)-2-cyclopropyl-1-[2-(trifluoromethyl)-1H-imidazol-4-yl]ethyl]-6-(3-methylimidazo[1,5-a]pyridin-6-yl)-1,3,5-triazine-2,4-diamine]
1 to 500 | Cc1ncc2ccc(-c3nc(N)nc(N[C@H](c4c[nH]c(C(F)(F)F)n4)C(C)C)n3)cn12 (single isomer, unassigned) [Example 142B, 6-(3-methylimidazo[1,5-a]pyridin-6-yl)-N2-[(1R or 1S)-2-methyl-1-[2-(trifluoromethyl)-1H-imidazol-4-yl]propyl]-1,3,5-triazine-2,4-diamine]
1 to 500 | Cc1ncc2ccc(-c3nc(N)nc(N[C@H](CC(C)C)c4c[nH]c(C(F)(F)F)n4)n3)cn12 (single isomer, unassigned) [Example 152A, 6-(3-methylimidazo[1,5-a]pyridin-6-yl)-N4-[(1S or 1R)-3-methyl-1-[2-(trifluoromethyl)-1H-imidazol-4-yl]butyl]-1,3,5-triazine-2,4-diamine]
1 to 500 | CC(C)CC(Nc1nc(N)nc(-c2ccc3cnn(C)c3c2)n1)c1c[nH]c(C(F)(F)F)n1 (single isomer, unassigned) [Example 180B, 6-(1-methylindazol-6-yl)-N4-[(1R or 1S)-3-methyl-1-[2-(trifluoromethyl)-1H-imidazol-4-yl]butyl]-1,3,5-triazine-2,4-diamine]
1 to 500 | Cc1nc([C@@H](Nc2nc(N)nc(-c3ccc4cnc(C)n4c3)n2)C(C)C)c[nH]1 (single isomer, unassigned) [Example 155B, 6-(3-methylimidazo[1,5-a]pyridin-6-yl)-N4-[(1S or 1R)-2-methyl-1-(2-methyl-1H-imidazol-4-yl)propyl]-1,3,5-triazine-2,4-diamine]
1 to 500 | CNc1nc(N[C@H](c2c[nH]c(C(F)(F)F)n2)C(C)C)nc(-c2ccc3cnc(C)n3c2)n1 (single isomer, unassigned) [Example 149B, N2-methyl-6-(3-methylimidazo[1,5-a]pyridin-6-yl)-N4-[(1S or 1R)-2-methyl-1-[2-(trifluoromethyl)-1H-imidazol-4-yl]propyl]-1,3,5-triazine-2,4-diamine]
1 to 500 | Cc1ncc2ccc(-c3nc(N)nc(NC[C@@H](O)c4cccc(Cl)c4Cl)n3)cn12 (single isomer, unassigned) [Example 146B, (1S or 1R)-[[4-amino-6-(3-methylimidazo[1,5-a]pyridin-6-yl)-1,3,5-triazin-2-yl]amino]-1-(2,3-dichlorophenyl) ethanol]

From patent US20250352549A1, “SUBSTITUTED HETEROCYCLIC COMPOUND DERIVATIVES AND THEIR PHARMACEUTICAL USE” (AVELOS THERAPEUTICS INC., priority 0001, published 2025)
